Assay results taken from ChEMBL document CHEMBL5614442, “Discovery, synthesis and biological evaluation of novel isoquinoline derivatives as potent indoleamine 2, 3-dioxygenase 1 and tryptophan 2, 3-dioxygenase dual inhibitors” (Eur J Med Chem, 2024).
One block for each molecule: values may come before it.

Experiments:
[1] = Half-life in male Sprague-Dawley rat at 2 mg/kg, iv measured after 8 hrs by LC-MS analysis; format: ADME, organism-based; conditions: in vivo
[2] = target: T1, Tryptophan 2,3-dioxygenase (Homo sapiens, UniProt P48775)
Target sequence in this assay (P48775 whole entry): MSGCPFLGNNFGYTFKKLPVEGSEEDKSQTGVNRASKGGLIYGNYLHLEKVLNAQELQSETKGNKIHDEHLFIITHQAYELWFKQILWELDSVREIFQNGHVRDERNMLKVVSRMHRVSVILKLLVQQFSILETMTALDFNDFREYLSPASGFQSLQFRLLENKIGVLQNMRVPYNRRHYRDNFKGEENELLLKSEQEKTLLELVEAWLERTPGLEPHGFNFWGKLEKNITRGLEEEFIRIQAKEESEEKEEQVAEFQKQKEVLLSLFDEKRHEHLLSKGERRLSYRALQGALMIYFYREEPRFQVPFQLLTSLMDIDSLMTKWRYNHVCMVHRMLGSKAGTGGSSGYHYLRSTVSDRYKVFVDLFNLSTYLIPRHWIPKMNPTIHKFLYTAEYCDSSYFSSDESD

[3] = target: T2, Indoleamine 2,3-dioxygenase 1 (Homo sapiens, UniProt P14902); assay: Binding affinity to recombinant human IDO1 assessed as equilibrium dissociation constant by SPR analysis
Target sequence in this assay (P14902 whole entry): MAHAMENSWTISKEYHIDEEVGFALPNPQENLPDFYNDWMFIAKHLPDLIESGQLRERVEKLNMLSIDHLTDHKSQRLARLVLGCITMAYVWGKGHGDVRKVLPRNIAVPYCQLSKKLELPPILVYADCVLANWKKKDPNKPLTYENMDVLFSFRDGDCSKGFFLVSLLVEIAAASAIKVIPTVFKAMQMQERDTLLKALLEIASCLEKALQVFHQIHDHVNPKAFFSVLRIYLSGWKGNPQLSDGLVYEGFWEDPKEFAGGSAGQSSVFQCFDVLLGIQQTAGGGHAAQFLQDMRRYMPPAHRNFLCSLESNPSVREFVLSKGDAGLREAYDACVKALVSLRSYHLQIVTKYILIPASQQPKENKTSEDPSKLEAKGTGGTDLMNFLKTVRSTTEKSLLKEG

[4] = Tmax in male Sprague-Dawley rat at 2 mg/kg, iv measured after 8 hrs by LC-MS analysis; format: ADME, organism-based; conditions: in vivo
[5] = AUC (0 to infinity) in male Sprague-Dawley rat at 20 mg/kg, ip measured after 8 hrs by LC-MS analysis; format: ADME, organism-based; conditions: in vivo
[6] = Bioavailability in male Sprague-Dawley rat at 20 mg/kg, ip measured after 8 hrs by LC-MS analysis; format: ADME, organism-based; conditions: in vivo
[7] = target: T2, Indoleamine 2,3-dioxygenase 1; assay: Binding affinity to recombinant human IDO1 assessed as dissociation rate constant at 0.78 to 25 uM by SPR analysis
Target sequence in this assay (P14902 whole entry): as above

[8] = Clearance in male Sprague-Dawley rat at 2 mg/kg, iv measured after 8 hrs by LC-MS analysis; format: ADME, organism-based; conditions: in vivo
[9] = Clearance in male Sprague-Dawley rat at 100 mg/kg, po measured after 8 hrs by LC-MS analysis; format: ADME, organism-based; conditions: in vivo
[10] = Volume of distribution in male Sprague-Dawley rat at 2 mg/kg, iv measured after 8 hrs by LC-MS analysis; format: ADME, organism-based; conditions: in vivo
HEK-293T = assay: Cytotoxicity against HEK293T cells assessed as reduction in cell viability at effective concentration incubated for 24 hrs by CCK8 assay; format: toxicity, cell-based; conditions: human
B16-F10 [11] = assay: Antitumor activity against mouse B16-F10 cells implanted in male C57BL/6 mouse model assessed as suppression of tumor growth administered intraperitoneally once daily for 14 days; format: functional, cell-based; conditions: dose 25-100 mg/kg, route ip, time 14.0 day
[12] = AUC (0 to t) in male Sprague-Dawley rat at 100 mg/kg, po measured after 8 hrs by LC-MS analysis; format: ADME, organism-based; conditions: in vivo
B16-F10 [13] = assay: Cytotoxicity against mouse B16-F10 cells assessed as reduction in cell viability at effective concentration incubated for 24 hrs by CCK8 assay; format: toxicity, cell-based; conditions: b16-f10, 24 h
[14] = target: T1, Tryptophan 2,3-dioxygenase; remark: listed apart in the source
Target sequence in this assay (P48775 whole entry): as the sequence (P48775 whole entry) above

[15] = Toxicity in male C57BL/6 mouse implanted with mouse B16-F10 cells assessed as effect on lung morphology at 25 to 100 mg/kg, ip administered once daily for 14 days by H and E staining based analysis; format: organism-based; conditions: in vivo, 336 h, dose 25-100 mg/kg, time 14 day
[16] = Toxicity in male C57BL/6 mouse implanted with mouse B16-F10 cells assessed as effect on kidney morphology at 25 to 100 mg/kg, ip administered once daily for 14 days by H and E staining based analysis; format: organism-based; conditions: in vivo, 336 h, dose 25-100 mg/kg, time 14 day
[17] = target: T2, Indoleamine 2,3-dioxygenase 1; assay: Inhibition of IDO1 in IFN-gamma induced human HeLa cells using L-tryptophan as substrate incubated for 24 hrs by absorbance based microplate analysis; format: cell-based
Target sequence in this assay (P14902 whole entry): as the sequence (P14902 whole entry) above

[18] = target: T2, Indoleamine 2,3-dioxygenase 1; assay: Inhibition of N-terminal His-tagged recombinant human IDO1 extracted from Escherichia coli Transetta (DE3) using L-tryptophan as substrate preincubated for 5 mins followed by substrate addition and measured after 1 hrs by absorbance based microplate reader
Target sequence in this assay (P14902 whole entry): as above

[19] = Half-life in male Sprague-Dawley rat at 100 mg/kg, po measured after 8 hrs by LC-MS analysis; format: ADME, organism-based; conditions: in vivo
[20] = AUC (0 to t) in male Sprague-Dawley rat at 20 mg/kg, ip measured after 8 hrs by LC-MS analysis; format: ADME, organism-based; conditions: in vivo
[21] = AUC (0 to infinity) in male Sprague-Dawley rat at 100 mg/kg, po measured after 8 hrs by LC-MS analysis; format: ADME, organism-based; conditions: in vivo
[22] = Toxicity in male C57BL/6 mouse implanted with mouse B16-F10 cells assessed as effect on liver morphology at 25 to 100 mg/kg, ip administered once daily for 14 days by H and E staining based analysis; format: organism-based; conditions: in vivo, 336 h, dose 25-100 mg/kg, time 14 day
[23] = Tmax in male Sprague-Dawley rat at 100 mg/kg, po measured after 8 hrs by LC-MS analysis; format: ADME, organism-based; conditions: in vivo
HeLa = assay: Cytotoxicity against human HeLa cells assessed as reduction in cell viability at effective concentration incubated for 24 hrs by CCK8 assay; format: toxicity, cell-based
[24] = Oral bioavailability in male Sprague-Dawley rat at 100 mg/kg measured after 8 hrs by LC-MS analysis; format: ADME, organism-based; conditions: in vivo
U-87 MG = assay: Cytotoxicity against human U87 cells assessed as reduction in cell viability at effective concentration incubated for 24 hrs by CCK8 assay; format: toxicity, cell-based; conditions: u-87mg atcc
[25] = Cmax in male Sprague-Dawley rat at 20 mg/kg, ip measured after 8 hrs by LC-MS analysis; format: ADME, organism-based; conditions: in vivo
[26] = Half-life in male Sprague-Dawley rat at 20 mg/kg, ip measured after 8 hrs by LC-MS analysis; format: ADME, organism-based; conditions: in vivo
[27] = Cmax in male Sprague-Dawley rat at 2 mg/kg, iv measured after 8 hrs by LC-MS analysis; format: ADME, organism-based; conditions: in vivo
[28] = target: T2, Indoleamine 2,3-dioxygenase 1; conditions: dose 0.78-25 µM
Target sequence in this assay (P14902 whole entry, looked up): as the sequence (P14902 whole entry) above

[29] = target: T1, Tryptophan 2,3-dioxygenase; remark: listed apart in the source
Target sequence in this assay (P48775 whole entry): as the sequence (P48775 whole entry) above

[30] = AUC (0 to t) in male Sprague-Dawley rat at 2 mg/kg, iv measured after 8 hrs by LC-MS analysis; format: ADME, organism-based; conditions: in vivo
[31] = Tmax in male Sprague-Dawley rat at 20 mg/kg, ip measured after 8 hrs by LC-MS analysis; format: ADME, organism-based; conditions: in vivo
[32] = Clearance in male Sprague-Dawley rat at 20 mg/kg, ip measured after 8 hrs by LC-MS analysis; format: ADME, organism-based; conditions: in vivo
[33] = Volume of distribution in male Sprague-Dawley rat at 100 mg/kg, po measured after 8 hrs by LC-MS analysis; format: ADME, organism-based; conditions: in vivo
[34] = Volume of distribution in male Sprague-Dawley rat at 20 mg/kg, ip measured after 8 hrs by LC-MS analysis; format: ADME, organism-based; conditions: in vivo
[35] = Toxicity in male C57BL/6 mouse implanted with mouse B16-F10 cells assessed as effect on heart morphology at 25 to 100 mg/kg, ip administered once daily for 14 days by H and E staining based analysis; format: organism-based; conditions: in vivo, 336 h, dose 25-100 mg/kg, time 14 day
[36] = Cmax in male Sprague-Dawley rat at 100 mg/kg, po measured after 8 hrs by LC-MS analysis; format: ADME, organism-based; conditions: in vivo
[37] = AUC (0 to infinity) in male Sprague-Dawley rat at 2 mg/kg, iv measured after 8 hrs by LC-MS analysis; format: ADME, organism-based; conditions: in vivo
[38] = Toxicity in male C57BL/6 mouse implanted with mouse B16-F10 cells assessed as effect on spleen morphology at 25 to 100 mg/kg, ip administered once daily for 14 days by H and E staining based analysis; format: organism-based; conditions: in vivo, 336 h, dose 25-100 mg/kg, time 14 day
[39] = target: T1, Tryptophan 2,3-dioxygenase; conditions: dose 0.78-25 µM
Target sequence in this assay (P48775 whole entry, looked up): as the sequence (P48775 whole entry) above

[40] = Toxicity in male C57BL/6 mouse implanted with mouse B16-F10 cells assessed as body weight loss at 25 to 100 mg/kg, ip administered once daily for 14 days; format: organism-based; conditions: in vivo, 336 h, dose 25-100 mg/kg, time 14 day
[41] = Toxicity in male C57BL/6 mouse implanted with mouse B16-F10 cells assessed as effect on kidney morphology at 100 mg/kg, ip administered once daily for 14 days by H and E staining based analysis; format: organism-based; conditions: in vivo, 336 h, time 14 day
[42] = Toxicity in male C57BL/6 mouse implanted with mouse B16-F10 cells assessed as body weight loss at 100 mg/kg, ip administered once daily for 14 days; format: organism-based; conditions: in vivo, 336 h, time 14 day
[43] = Toxicity in male C57BL/6 mouse implanted with mouse B16-F10 cells assessed as effect on spleen morphology at 100 mg/kg, ip administered once daily for 14 days by H and E staining based analysis; format: organism-based; conditions: in vivo, 336 h, time 14 day
[44] = Toxicity in male C57BL/6 mouse implanted with mouse B16-F10 cells assessed as effect on liver morphology at 100 mg/kg, ip administered once daily for 14 days by H and E staining based analysis; format: organism-based; conditions: in vivo, 336 h, time 14 day
[45] = Toxicity in male C57BL/6 mouse implanted with mouse B16-F10 cells assessed as effect on lung morphology at 100 mg/kg, ip administered once daily for 14 days by H and E staining based analysis; format: organism-based; conditions: in vivo, 336 h, time 14 day
[46] = Toxicity in male C57BL/6 mouse implanted with mouse B16-F10 cells assessed as effect on heart morphology at 100 mg/kg, ip administered once daily for 14 days by H and E staining based analysis; format: organism-based; conditions: in vivo, 336 h, time 14 day

half-life [1]: 2.14 h
IC50 [2]: 7230 nM
Kd [3]: 450 nM
Tmax [4]: 4.98 min
AUC(0-inf) [5]: 6660 ng·h/mL
bioavailability [6]: 72.6%
koff [7]: 0.021 s⁻¹
clearance [8]: 37.6 mL/min/kg
CL/F [9]: 59.7 mL/min/kg
Vd [10]: 6.9 L/kg
AUC(0-t) at 8 h [12]: 23300 ng·h/mL
IC50 [14]: 80 nM
IC50 [17]: 9290 nM
IC50 [18]: 310 nM
half-life [19]: 2.8 h
AUC(0-t) at 8 h [20]: 6690 ng·h/mL
AUC(0-inf) [21]: 28400 ng·h/mL
Tmax [23]: 1.33 h
bioavailability [24]: 61.9%
Cmax [25]: 11400 ng/mL
half-life [26]: 1.2 h
Cmax [27]: 3420 ng/mL
Ka [28]: 4.69 10^4/Ms
Kd [29]: 740 nM
AUC(0-t) at 8 h [30]: 916 ng·h/mL
Tmax [31]: 0.25 h
CL/F [32]: 50 mL/min/kg
Vd [33]: 14.376 L/kg
Vd [34]: 5.17 L/kg
Cmax [36]: 5190 ng/mL
AUC(0-inf) [37]: 917 ng·h/mL
Ka [39]: 4.9 10^4/Ms
SMILES: COc1ccc2cc(-c3ccc(NS(=O)(=O)C(F)(F)F)cc3)ncc2c1O
Activity (HEK-293T): Non-Toxic
Activity (B16-F10 [11]): Dose-Dependent Effect
Activity (B16-F10 [13]): Non-Toxic
Activity [15]: Non-Toxic
Activity [16]: Non-Toxic
Activity [22]: Non-Toxic
Activity (HeLa): Non-Toxic
Activity (U-87 MG): Non-Toxic
Activity [35]: Non-Toxic
Activity [38]: Non-Toxic
Activity [40]: Non-Toxic

SMILES: Cn1cc(C[C@H](N)C(=O)O)c2ccccc21 [(L)-1-METHYLTRYPTOPHAN]
Activity [41]: Non-Toxic
Activity [42]: Non-Toxic
Activity [43]: Non-Toxic
Activity [44]: Non-Toxic
Activity [45]: Non-Toxic
Activity [46]: Non-Toxic
